In brackets after ≈: the same amount, converted by molar mass. Like-named read-outs stand apart in the source and are kept apart here.
Tests used:
Type in all cases: in vivo
[1] = test system: Houseflies (MD) (Musca domestica); settings: for MD LD50 (µg/insect): Tables 10, 13, 14, NA = lack of detectable activity
Protocol: Female flies were treated on the thorax with a one microlitre drop of test compound dissolved in acetone. Two replicates of 15 flies were used at each dose rate and 6 dose rates were used per compound under test. After treatment, the flies were maintained at a temperature of 20° ± 1°C and kill was assessed 24 and 48 hours after treatment. LD50 values were calculated in micrograms of test compound per fly (see Sawicki et al., Bulletin of the World Health Organisation, 35, 893 (1966) and Sawicki et al., Entomologia and Exp. Appli 10, 253, (1967).

[2] = test system: Mustard beetles (PC) (Phaedon cochleariae Fab); settings: for PC LD50 (µg/insect): Tables 10, 13, 14
Protocol: A one microlitre drop of an acetone solution of the test compound was applied ventrally to adult mustard beetles using a micro drop applicator. The treated insects were maintained for 48 hours after which time kill was assessed. Two replicates each of 20 to 25 mustard beetles were used at each dose level and 5 dose levels were treated comparably. LD50 values were calculated as for houseflies.

[3] = test system: Mites (TU) (Tetranychus urticae), susceptible strain (GSS); test: Mite immersion test, susceptible strain GSS
Protocol: 25 adult female mites were immersed in 35 µl of a solution of the test compound in a 1:4 acetone-water mixture for 30 seconds. The treated insects were maintained at 21° ± 2°C and kill was assessed 72 hours after treatment. […] Three replicates of 25 mites each were used at each dose rate and 5 or 6 dose rates were used per compound under test. LC50 values were calculated in ppm of the solution of the test compound per insect. The test was carried out using a susceptible strain of mites (GSS) supplied by Schering, AG, Berlin.

[4] = test system: Whitefly (BT) (Bemisia tabaci), susceptible strain (SUD-S); test: Whitefly residual film vial test, susceptible strain SUD-S
Protocol: Acetone solutions (0.100 ml) of the test compounds were placed in 10 ml glass vials and evaporated with rotation to deposit a film of the compound. Thirty adult whiteflies were placed inside the vial, then after 60 minutes, the treated insects were transferred onto untreated cotton leaf discs which were kept moist on a bed of agar gel. The temperature was maintained at 25°C and mortality assessed after 48 hours. Three replicates were used at each of 5 to 7 dose levels per compound.

[5] = test system: Myzus persicae, susceptible strain (US1L); test: Aphid dip test, susceptible strain; settings: read-out: MP % kill 100 ppm
Protocol: Activity against resistant (R) and susceptible (S) strains of aphid (Myzus persicae) was assessed using the following method.
Entrapment rings of fluon were painted halfway up the inside of 4 cm lengths of glass tubing (1.5 cm diameter), and squares of insect-proof gauze were attached to one end of each tube by elastic bands. Fifteen apterous adults were then gently transferred into the tubes using a sable-hair brush, and the tube sealed with a second gauze square.
Tubes containing aphids were dipped into insecticide solutions for 10 seconds, dried on blotting paper, and then inverted and tapped to cause treated aphids to fall to the unimmersed end of each tube. Handling mortality (usually zero or very slight) was scored after 1 hour, when aphids were transferred onto chinese cabbage leaf-discs (35 mm diameter) on an agar bed (25 mm in depth) in disposible plastic containers (30 mm high) and confined by applying a ring of fluon to the exposed lip of the container. Containers were store upright, without lids, in a constant environment facility maintained at 25°C under continuous room lighting. Mortality was assessed at 24, 48 and 72 hours. Two replicates of 15 aphids each were used at each dose rate and 5 or 6 dose rates were used per compound under test.
The test was carried out using a susceptible strain of aphids (US1L) collected in the field in East Anglia, UK and an extremely resistant strain of aphids (794Jz) (R3 esterase, sensitive AChE) collected from glasshouses in the UK.
The values given are % mortality corrected for control data. The control comprised the test solution without active ingredient.

[6] = NA = lack of detectable activity
[7] = 72 h, Tables 10, 13, 14, susceptible strain, NA = lack of detectable activity, read-out: TU LC50 (ppm/insect)
[8] = 48 h, Tables 10, 13, 14, susceptible strain, NA = lack of detectable activity, read-out: BT LC50 (ppm/insect)
[9] = topical 1 µl drop in acetone on female flies, kill assessed 24 and 48 hours
[10] = 1 µl acetone drop applied ventrally to adults, kill at 48 hours, NA = lack of detectable activity
[11] = ppm solution of test compound, 30 seconds immersion, kill at 72 hours, read-out: TU(GSS) (LC50)
[12] = ppm solution of test compound, 60 minutes film exposure, mortality after 48 hours, read-out: BT(SUD-S) (LC50)

Row | SMILES | MD LD50 (µg/insect) [1] | PC LD50 (µg/insect) [2, 6] | LC50 [3, 7] | LC50 [4, 8] | mortality at 100 ppm [5] | also measured
1 | CCCCCCC1=C(O)C(=O)c2ccccc2C1=O [-(CH2)5CH3, reference compound] | c20 µg/insect | c7 µg/insect | 170 µg/mL (≈ 658 µM) | 9.4 µg/mL (≈ 36.4 µM) | 0% | –
2 | CCCCCCCCCCCCC1=C(O)C(=O)c2ccccc2C1=O [-(CH2)11CH3, reference compound] | – | – | < 60 µg/mL | > 100 µg/mL | 0% | –
3 | CC(C)(C)C1CCC(C2=C(O)C(=O)c3ccccc3C2=O)CC1 (centres unmarked) [Compound B, 2-hydroxy-3-(4-t-butylcyclohexyl)-naphthalene-1,4-dione, reference compound] | – | – | – | – | – | MD (LD50) ([1]; house fly, in vivo): 15.5; PC (LD50) ([2]; mustard beetle, in vivo, 2880 min): 0.53; LC50 ([3]; 72 h, text b201, no unit printed there, read-out: TU (GSS) LC50): 44 µg/mL (≈ 141 µM); LC50 ([4]; 48 h, text b201, no unit printed there, read-out: BT(SUD-S) LC50): 18 µg/mL (≈ 57.6 µM)
4 | C=CC(C)(C)C1=C(OC(=O)CC)C(=O)c2ccccc2C1=O [Example 4] | – | – | – | – | – | MD (LD50) [1, 9]: 8.2 µg/insect; PC (LD50) [2, 10]: 3.9 µg/insect; LC50 [3, 11]: 18 µg/mL (≈ 60.3 µM); LC50 [4, 12]: 5.3 µg/mL (≈ 17.8 µM)
5 | C=CC(C)(C)C1=C(OC(=O)CCCC)C(=O)c2ccccc2C1=O [Example 6] | – | – | – | – | – | MD (LD50) [1, 9]: c. 2.0 µg/insect; PC (LD50) [2, 10]: 2.1 µg/insect; LC50 [3, 11]: 27 µg/mL (≈ 82.7 µM); LC50 [4, 12]: 16 µg/mL (≈ 49 µM)
6 | C=CC(C)(C)C1=C(OC(=O)CCCCC)C(=O)c2ccccc2C1=O [Example 7] | – | – | – | – | – | MD (LD50) [1, 9]: > 20 µg/insect; PC (LD50) [2, 10]: c. 6.0 µg/insect; LC50 [3, 11]: 53 µg/mL (≈ 156 µM); LC50 [4, 12]: < 100 µg/mL
7 | C=CC(C)(C)C1=C(OC(=O)C(C)C)C(=O)c2ccccc2C1=O [Example 10] | – | – | – | – | – | MD (LD50) [1, 9]: > 20 µg/insect; PC (LD50) [2, 10]: c. 6.0 µg/insect; LC50 [3, 11]: 15 µg/mL (≈ 48 µM); LC50 [4, 12]: 35 µg/mL (≈ 112 µM)
8 | CCCC(C)(C)C1=C(O)C(=O)c2ccccc2C1=O [Example 16] | – | – | – | – | – | MD (LD50) [1, 9]: 8.8 µg/insect; PC (LD50) [2, 10]: c. 10 µg/insect; LC50 [3, 11]: 91 µg/mL (≈ 352 µM); LC50 [4, 12]: 10 µg/mL (≈ 38.7 µM)
9 | CCCCCC(C)(C)C1=C(O)C(=O)c2ccccc2C1=O [Example 18] | – | – | – | – | – | MD (LD50) [1, 9]: 13 µg/insect; PC (LD50) [2, 10]: c. 15 µg/insect; LC50 [3, 11]: ~100 µg/mL (≈ 349 µM); LC50 [4, 12]: 10 µg/mL (≈ 34.9 µM)
10 | CC1(C2=C(O)C(=O)c3ccccc3C2=O)CCCC1 [Example 24, 2-hydroxy-3-(1'-methylcyclopentyl)-naphthalene-1,4-dione] | – | – | 48 µg/mL (≈ 187 µM) | 33 µg/mL (≈ 129 µM) | 44% | –
11 | CCC1(C2=C(O)C(=O)c3ccccc3C2=O)CCCCC1 [Example 26, 2-(1'-ethylcyclohexyl)-3-hydroxy-naphthalene-1,4-dione] | 13 µg/insect | 2.9 µg/insect | > 100 µg/mL | 2.9 µg/mL (≈ 10.2 µM) | – | –
12 | C=CC1(C2=C(O)C(=O)c3ccccc3C2=O)CCCCC1 [Example 27, 2-(1'-ethenecyclohexyl)-3-hydroxy-naphthalene-1,4-dione] | 6.0 µg/insect | 4.7 µg/insect | ~80 µg/mL (≈ 283 µM) | 0.9 µg/mL (≈ 3.19 µM) | – | –
13 | O=C1C(O)=C(C2(C(F)(F)F)CCCCC2)C(=O)c2ccccc21 [Example 28, 2-hydroxy-3-(1'-trifluoromethylcyclohexyl)-naphthalene-1,4-dione] | 14 µg/insect | – | 40 µg/mL (≈ 123 µM) | 24 µg/mL (≈ 74 µM) | 5% | –
14 | C=CC1(C2=C(O)C(=O)c3ccccc3C2=O)CCCC1 [Example 30] | 15 µg/insect | <20 µg/insect | 6 µg/mL (≈ 22.4 µM) | ~50 µg/mL (≈ 186 µM) | – | –
15 | CC1(C2=C(O)C(=O)c3ccccc3C2=O)C=CCCC1 (centres unmarked) [Example 31] | 6 µg/insect | 5 µg/insect | ~50 µg/mL (≈ 186 µM) | 4.7 µg/mL (≈ 17.5 µM) | 5% | –
16 | CC1(CC2=C(O)C(=O)c3ccccc3C2=O)CCCCC1 [Example 32, 2-hydroxy-3-((1'methylcyclohexyl)-methyl)-naphthalene-1,4-dione] | 3.6 µg/insect | <2 µg/insect | 2.9 µg/mL (≈ 10.2 µM) | 3.6 µg/mL (≈ 12.7 µM) | 50% | –
17 | CC(C)(C)CCC1=C(O)C(=O)c2ccccc2C1=O [Example 36, 2-(3,3-dimethylbutyl)-3-hydroxy-naphthalene-1,4-dione] | – | 1.3 µg/insect | 36 µg/mL (≈ 139 µM) | ~7 µg/mL (≈ 27.1 µM) | ~24% | –
18 | CC(C)(C)CCCC1=C(O)C(=O)c2ccccc2C1=O [Example 37, 2-(4,4-dimethylpentyl)-3-hydroxy-naphthalene-1,4-dione] | – | – | 2.9 µg/mL (≈ 10.6 µM) | 16 µg/mL (≈ 58.7 µM) | ~70% | –
19 | CC(C)(C)CCCCCC1=C(O)C(=O)c2ccccc2C1=O [Example 39] | c5 µg/insect | – | 9.6 µg/mL (≈ 32 µM) | 21 µg/mL (≈ 69.9 µM) | ~100% | –
20 | CC(C)(C)CCCCCCC1=C(O)C(=O)c2ccccc2C1=O [Example 40] | c5 µg/insect | – | 5 µg/mL (≈ 15.9 µM) | 13 µg/mL (≈ 41.3 µM) | ~100% | –
21 | CC(C)(C)C=CCCCC1=C(O)C(=O)c2ccccc2C1=O [Example 43, 2-(6,6-dimethylhep-4-enyl)-3-hydroxy-naphthalene-1,4-dione] | – | – | 11.5 µg/mL (≈ 38.5 µM) | ~60 µg/mL (≈ 201 µM) | ~100% | –
22 | CC(C)(C)C=CCCCCC1=C(O)C(=O)c2ccccc2C1=O [Example 44, 2-(7,7-dimethyloct-5-enyl)-3-hydroxy-naphthalene-1,4-dione] | c10 µg/insect | – | 4.3 µg/mL (≈ 13.8 µM) | ~100 µg/mL (≈ 320 µM) | ~100% | –
23 | CC(=O)OC1=C(C(C)(C)C)C(=O)c2ccccc2C1=O [Example 46] | 2.3 µg/insect | c15 µg/insect | ~500 µg/mL (≈ 1840 µM) | – | ~60% | –
24 | CC(=O)OC1=C(CCCCCCC=CCC(C)(C)C)C(=O)c2ccccc2C1=O [Example 49, 2-ethanoyoxy-3-(10,10-dimethylundecan-7-enyl)-naphthalene-1,4-dione] | c18 µg/insect | c10 µg/insect | 2.3 µg/mL (≈ 5.8 µM) | – | ~15% | –
